Patent publication US11352352B2, “Aminopyrimidine compound, preparation method therefor and use thereof” (BEIJING ADAMADLE BIOTECHNOLOGY LIMITED LIABILITY COMPANY, priority 2017, dated 2022)

Experiments:
Test in all cases: Cell proliferation inhibition experiment, CellTiter-Glo (CTG) method
Assay type in all cases: cell-based
[1] = tested on: A-431; details: Homo sapiens, A-431, 72 h, A-431 cells, 3 days
Procedure: (§1) Cell Proliferation Inhibition Experiment
(§2) Compounds were tested in the selected cell lines, and solvent is set as control, nine concentrations were detected with three parallel wells for each concentration.
(§3) 2. Reagents and Materials • 1) fetal bovine serum FBS (GIBCO, Cat #10099-141) • 2) CellTiter-Glo® Luminescent Cell Viability Assay (Promega, Cat #G7572) • 3) 96-well plate with flat clear bottom, black wall plates (Corning®, Cat #3340)
(§4) The first day: Incubation and plant of cells • 1) Cells in logarithmic growth phase were harvested and counted by cell counter. Cell viability was detected by trypan blue exclusion assay to ensure that the viability of each cell line was above 90%. • 2) Cell concentration was adjusted by diluting complete culture medium, and 90 μL cell suspension was added to a 96-well plate (T0 plate and drug plate to be tested) to make the cell density reach the specified concentration. • 3) Cells in 96-well plate were incubated overnight at condition of 37° C., 5% CO2 and 95% humidity.
(§5) The second day: Reading T0 plate • 1) 10 μL culture medium was added to T0 plate. • 2) CTG reagent was melt, while the cell plate was balanced to room temperature for 30 minutes. • 3) The same volume of CTG solution was added to each well. • 4) The cell plate was vibrated for 2 minutes on an orbital shaker to lyze the cells. • 5) The cell plate was placed at room temperature for 10 minutes to stabilize the cold light signal. • 6) The cold light value was read with EnVision.
Drug Addition • 1) Drug dilution. The compounds to be tested were dissolved and packaged, then a gradient elution was performed to obtain a solution diluted 10 times. • 2) Drug addition. […] drug solution was added into each well of the 96-well plate, which was inoculated cells, three parallel wells were set for each cell concentration. The highest concentration of the compounds to be tested on A-431 was 30 μM, nine concentrations was set with 3 times dilution; while the highest concentration on NCI-H1975 and PC-9 was 1.111 μM, 9 concentrations was set with 3 times dilution. • 3) Culture. Cells in 96-well plates in which drugs have been added were cultured at condition of 37° C., 5% CO2 and 95% humidity for 3 days, and then CTG assay was performed respectively.
(§6) The third day: reading plate at the terminal • 1) CTG reagent was melt, while the cell plate was balanced to room temperature for 30 minutes. • 2) The same volume of CTG solution was added to each well. • 3) The cell plate was vibrated for 2 minutes on an orbital shaker to lyze the cells. • 4) The cell plate was placed at room temperature for 10 minutes to stabilize the cold light signal. • 5) The cold light value was read with EnVision
(§7) Data were analyzed using GraphPad Prism 5.0 software, and non-linear S curve regression was used for fitting the data to give a dose-effect curve, IC50 value was calculated accordingly. Cell Survival Rate (%)=(Lumdrugs−Lumcontrol)/(Lumcell−Lumcontrol)×100%.

[2] = tested on: PC-9; details: Homo sapiens, PC-9, 72 h, PC-9 cells, 3 days
Procedure: as §1, §2, §3, §4, §5
(§8) Drug Addition • 1) Drug dilution. The compounds to be tested were dissolved and packaged, then a gradient elution was performed to obtain a solution diluted 10 times. • 2) Drug addition. […] drug solution was added into each well of the 96-well plate, which was inoculated cells, three parallel wells were set for each cell concentration.
as §6, §7

[3] = tested on: NCI-H1975; details: for IC50: Homo sapiens, NCI-H1975, 72 h, NCI-H1975 cells, CTG, 3 days; for A-431/NCI-H1975 Selectivity: ratio of A-431 IC50 to NCI-H1975 IC50
Procedure: as §1, §2, §3, §4, §5, §8, §6, §7

`C=CC(=O)Nc1cc(Nc2cc(-c3ccc4cnn(C)c4c3)ncn2)c(OC)cc1N1CCC(N2CCN(C)CC2)CC1` [compound 52] showed an IC50 [1] of 615 nM, an IC50 [2] of 39 nM and an IC50 [3] of 41.7 nM. For the same compound, the “A-431/NCI-H1975 Selectivity” value [3] was 14.7.
For `C=CC(=O)Nc1cc(Nc2cc(-c3ccc4c(cnn4C)c3)ncn2)c(OC)cc1N1CCC(CCO)CC1` [compound 270], the IC50 [1] was 2400 nM, the IC50 [2] was 54.6 nM and the IC50 [3] was 44.4 nM. For the same compound, the “A-431/NCI-H1975 Selectivity” value [3] was 54.1.
Work on `C=CC(=O)Nc1cc(Nc2cc(-c3ccc4c(cnn4C)c3)ncn2)c(OC(F)F)cc1N(C)CCNC(C)(C)C` [compound 120] yielded an IC50 [1] of 598 nM, an IC50 [2] of 6.7 nM and an IC50 [3] of 8.2 nM. For the same compound, the “A-431/NCI-H1975 Selectivity” value [3] was 73.0.
`C=CC(=O)Nc1cc(Nc2cc(-c3ccc4c(cnn4C)c3)ncn2)c(OC(F)F)cc1N(C)CCN1CCN(C)CC1` [compound 67] gave an IC50 [1] of 891 nM, an IC50 [2] of 15 nM and an IC50 [3] of 14.6 nM. The “A-431/NCI-H1975 Selectivity” value [3] was 61.0.
Work on `C=CC(=O)Nc1cc(Nc2cc(-c3ccc4c(cnn4C(C)C)c3)ncn2)c(OC)cc1N(C)C1CCN(C)CC1` [compound 85] yielded an IC50 [1] of 1840 nM, an IC50 [2] of 56.7 nM and an IC50 [3] of 72.3 nM. For the same compound, the “A-431/NCI-H1975 Selectivity” value [3] was 25.4.
In the case of `C=CC(=O)Nc1cc(Nc2cc(-c3ccc4c(cnn4C)c3)ncn2)c(OC(F)F)cc1N1CCN(C2CCOCC2)CC1` [compound 153], the IC50 [1] is reported as 1320 nM, the IC50 [2] is reported as 35.1 nM and the IC50 [3] is reported as 25 nM. The “A-431/NCI-H1975 Selectivity” value [3] was 53.0.
Compound `C=CC(=O)Nc1cc(Nc2cc(-c3ccc4c(cnn4C)c3)ncn2)c(OC)cc1N(C)C1CCN(C(C)=O)CC1` [compound 293] has an IC50 [1] of 2730 nM, an IC50 [2] of 54.2 nM and an IC50 [3] of 79.6 nM. The “A-431/NCI-H1975 Selectivity” value [3] was 34.3.
With `C=CC(=O)Nc1cc(Nc2cc(-c3ccc4c(cnn4C)c3)ncn2)c(OC)cc1N1CCC(N2CCCC2=O)CC1` [compound 212] the IC50 [1] was 2030 nM, the IC50 [2] was 54.7 nM and the IC50 [3] was 71.8 nM. The “A-431/NCI-H1975 Selectivity” value [3] was 28.3.
In the case of `C=CC(=O)Nc1cc(Nc2cc(-c3ccc4c(cnn4C)c3)ncn2)c(OC)cc1N1CCN(C)C(C)C1` (stereo not shown) [compound 22], the IC50 [1] is reported as 1060 nM, the IC50 [2] is reported as 13.4 nM and the IC50 [3] is reported as 18.1 nM. For the same compound, the “A-431/NCI-H1975 Selectivity” value [3] was 58.3.
Compound `C=CC(=O)Nc1cc(Nc2cc(-c3ccc4c(cnn4C)c3)ncn2)c(OC)cc1N1C[C@@H](C)N[C@@H](C)C1` [compound 264] has an IC50 [1] of 924 nM, an IC50 [2] of 22.1 nM and an IC50 [3] of 5.5 nM.
`C=CC(=O)Nc1cc(Nc2nccc(-c3ccc4c(cnn4C)c3)n2)c(OC)cc1N(C)CCN1CCN(C)CC1` [compound 244] was tested, and the IC50 [1] was 2400 nM, the IC50 [2] was 84.7 nM and the IC50 [3] was 59.7 nM. For the same compound, the “A-431/NCI-H1975 Selectivity” value [3] was 40.2.
With `C=CC(=O)Nc1cc(Nc2cc(-c3ccc4cnn(C)c4c3)ncn2)c(OC)cc1N1CCN(C)CC1` [compound 43] the IC50 [1] was 1140 nM, the IC50 [2] was 16.7 nM and the IC50 [3] was 29.8 nM. The “A-431/NCI-H1975 Selectivity” value [3] was 38.3.
In the case of `C=CC(=O)Nc1cc(Nc2nccc(-c3ccc4c(cnn4C(C)C)c3)n2)c(OC)cc1N(C)CCN(C)C` [compound 238], the IC50 [1] is reported as 1940 nM, the IC50 [2] is reported as 99.4 nM and the IC50 [3] is reported as 51.6 nM. For the same compound, the “A-431/NCI-H1975 Selectivity” value [3] was 37.6.
Compound `C=CC(=O)Nc1cc(Nc2cc(-c3ccc4nn(C)cc4c3)ncn2)c(OC)cc1N(C)CCN(C)C` [compound 7] has an IC50 [1] of 129 nM, an IC50 [2] of 10.7 nM and an IC50 [3] of 11.1 nM. For the same compound, the “A-431/NCI-H1975 Selectivity” value [3] was 11.6.
With `C=CC(=O)Nc1cc(Nc2cc(-c3ccc4c(cnn4C)c3)ncn2)c(OC)cc1N1CCN(CC(F)(F)F)CC1` [compound 32] the IC50 [1] was 9330 nM, the IC50 [2] was 10.9 nM and the IC50 [3] was 186 nM. For the same compound, the “A-431/NCI-H1975 Selectivity” value [3] was 50.1.
Compound `C=CC(=O)Nc1cc(Nc2cc(-c3ccc4cnn(C)c4c3)ncn2)c(OC)cc1N1CCN(C2COC2)CC1` [compound 219] has an IC50 [1] of 2510 nM, an IC50 [2] of 45.9 nM and an IC50 [3] of 49.4 nM. For the same compound, the “A-431/NCI-H1975 Selectivity” value [3] was 50.8.
Compound `C=CC(=O)Nc1cc(Nc2cc(-c3ccc4cnn(C)c4c3)ncn2)c(OC)cc1N(C)C1CCN(C2CCOCC2)CC1` [compound 221] has an IC50 [1] of 2440 nM, an IC50 [2] of 96 nM and an IC50 [3] of 70.3 nM. The “A-431/NCI-H1975 Selectivity” value [3] was 34.7.
